Measured values taken from BindingDB's records for PubMed 32092586 (Zhengzhou University, 2020).

Molecular target: Ubiquitin carboxyl-terminal hydrolase 7 (Homo sapiens, UniProt Q93009)
Experiment: Inhibition of human USP7 using Ub-AMC as substrate

Sequence of Ubiquitin carboxyl-terminal hydrolase 7 (Q93009 whole entry): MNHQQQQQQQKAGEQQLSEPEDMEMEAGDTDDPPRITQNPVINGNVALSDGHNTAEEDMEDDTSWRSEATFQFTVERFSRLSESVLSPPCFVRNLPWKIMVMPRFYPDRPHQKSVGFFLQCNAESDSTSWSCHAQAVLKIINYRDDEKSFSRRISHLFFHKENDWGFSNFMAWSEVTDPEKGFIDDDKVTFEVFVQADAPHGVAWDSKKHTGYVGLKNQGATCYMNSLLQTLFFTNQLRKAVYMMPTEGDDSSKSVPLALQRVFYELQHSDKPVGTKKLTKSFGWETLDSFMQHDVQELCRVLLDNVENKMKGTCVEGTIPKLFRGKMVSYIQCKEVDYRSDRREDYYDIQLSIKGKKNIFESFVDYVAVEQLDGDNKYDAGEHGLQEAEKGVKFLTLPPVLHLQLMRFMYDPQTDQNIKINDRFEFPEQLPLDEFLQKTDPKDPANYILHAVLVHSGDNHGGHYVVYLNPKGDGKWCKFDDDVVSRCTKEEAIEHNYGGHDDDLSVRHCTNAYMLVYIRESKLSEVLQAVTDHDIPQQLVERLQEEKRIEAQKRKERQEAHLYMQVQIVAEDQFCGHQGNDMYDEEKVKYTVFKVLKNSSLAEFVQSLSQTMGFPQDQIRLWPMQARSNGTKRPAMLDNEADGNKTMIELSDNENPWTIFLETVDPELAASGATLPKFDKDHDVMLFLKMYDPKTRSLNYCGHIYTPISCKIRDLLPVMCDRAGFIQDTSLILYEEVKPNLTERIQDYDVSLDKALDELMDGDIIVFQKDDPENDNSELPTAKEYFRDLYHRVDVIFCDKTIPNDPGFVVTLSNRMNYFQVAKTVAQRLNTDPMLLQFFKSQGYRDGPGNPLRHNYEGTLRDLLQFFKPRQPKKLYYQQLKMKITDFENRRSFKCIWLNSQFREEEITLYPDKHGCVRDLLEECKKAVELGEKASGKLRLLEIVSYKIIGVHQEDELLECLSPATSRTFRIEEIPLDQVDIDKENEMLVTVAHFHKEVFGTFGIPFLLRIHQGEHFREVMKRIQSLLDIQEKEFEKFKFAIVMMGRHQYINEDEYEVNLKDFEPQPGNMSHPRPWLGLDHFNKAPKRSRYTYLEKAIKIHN

- IC50: 90 nM
SMILES: C[C@H](CC(=O)N1CCC(O)(Cn2cnc3cc(NC(=O)CCN4CCN(C)CC4)ccc3c2=O)CC1)c1ccccc1
